Data set [1] deals with panel of six cell lines (A-549, MCF-7, HT-29, A-498, PC-3, PACA-2). Description: cytotoxicity against the panel of six human tumor cell lines. Format: cell-based. The conditions noted are these: for spectra of cytotoxic selectivities, squamotacin versus molvizarin: Table 1. Here is the method:
(§1) The cytotoxicities of squamotacin, molvizarin and bullatacin were evaluated, in the same run, against a panel of six cell lines (Table 1). Adriamycin was included as a standard. The relative cytotoxicity of the compounds to non-tumor cells was determined based on the brine shrimp lethality assay (BSA). The panel of tumor cell lines tested includes human lung carcinoma (A-549), human breast carcinoma (MCF-7), human colon adenocarcinoma (HT-29), human renal carcinoma (A-498), human prostate adenocarcinoma (PC-3) and human pancreatic carcinoma (PACA-2).
(§2) The brine shrimp (Artemia salina Leach) test (BST) was performed as modified to determine LC50 values in μg/ml. Zhao et al., Phytochemistry, 33, p. 1065 (1993). Seven-day in vitro cytotoxicity tests against human tumor cell lines were carried out at the Purdue Cancer Center, using standard protocols for A-549 (human lung carcinoma), MCF-7 (human breast carcinoma) and HT-29 (human colon carcinoma), human renal carcinoma (A-498), human prostate adenocarcinoma (PC-3) and human pancreatic carcinoma (PACA-2) with adriamycin as a positive control. The reported ED50 values in μg/ml (Table 1) were tabulated from the same run, except where noted, in order to facilitate comparison for the SAR's.

A short description of another data set: in vivo. Also on record: species or system Artemia salina Leach (brine shrimp). The note with it: brine shrimp larvae, read-out: BST LC30. Here is the method:
as §1, §2

Data set [2] relates to PC-3 (human prostate adenocarcinoma). In words: seven-day in vitro cytotoxicity, PC-3. The conditions noted are these: for activity relative to the positive control adriamycin: PC-3, versus adriamycin; for selectivity for the prostate cell line (PC-3): PC-3, versus other cell lines of Table 1. Format: cell-based. Here is the method: as §1, §2
Data set [3] deals with A2780 human ovarian cancer xenografts. The note with it: 50 μg/kg, athymic mice bearing A2780 human ovarian cancer xenografts; cited from earlier work. In general terms: A xenograft is tissue or cells of one species grown in another, often human tumour cells in immunodeficient mice.

In brackets after ≈: the same amount, converted by molar mass. Entries after “also recorded” stand apart in the source; their conditions may differ.

`CCCCCCCCCCCC[C@H](O)[C@H]1CC[C@H]([C@H]2CC[C@H]([C@H](O)CCCCCCCC[C@@H](O)CC3=C[C@H](C)OC3=O)O2)O1` [Compound 1, squamotacin]: the “spectra of cytotoxic selectivities, squamotacin versus molvizarin” value in data set [1] is “quite similar”. Further, in data set [1] (six cell lines, versus bullatacin), the “activity relative to bullatacin in the cell panel” value is on record as “less activity than bullatacin in five of the six cell lines tested, with HT-29 (colon) being the exception”. Also, the LC50 in “in vivo” is 6.8 ng/mL (≈ 0.0109 µM). For the same molecule, in data set [2], the “activity relative to the positive control adriamycin” value is listed as “over 100 million” and the “selectivity for the prostate cell line (PC-3)” value is “high selectively for the prostate cell line (PC-3); also recorded: high selectivity”.
`CCCCCCCCCC[C@H](O)[C@H]1CC[C@H]([C@H]2CC[C@H]([C@H](O)CCCCCCCC[C@@H](O)CC3=C[C@H](C)OC3=O)O2)O1` [Compound 2, molvizarin]: in data set [1], the “spectra of cytotoxic selectivities, squamotacin versus molvizarin” value is “quite similar”. For the same molecule, in data set [2], the “activity relative to the positive control adriamycin” value is “over 100 million” and the “selectivity for the prostate cell line (PC-3)” value is recorded as “high selectively for the prostate cell line (PC-3); also recorded: showed selectivity for PC-3; also recorded: high selectivity”.
Consider `CCCCCCCCCC[C@H](O)[C@H]1CC[C@H]([C@H]2CC[C@H]([C@H](O)CCCCCCCCCC[C@@H](O)CC3=C[C@H](C)OC3=O)O2)O1` [Compound 3, bullatacin], for which the “tumor growth inhibition (TGI)” value in data set [3] is 67%.

(Values after patent US5955497A, “Bioactive acetogenins” (Purdue Research Foundation, priority 1998, dated 1999).)
